Data on 2 compounds can be found in US20090069394A1, “CANCER TREATMENT WITH EPOTHILONES” (priority 2003, published 2009).

Details of series [1]: species or system BALB/c nude mice. The note with it: mouse, in vivo. On the procedure:
BALB/c nude mice bearing KB-8511 xenograft tumors (initial volume of 250 mm3) were treated using various loading and maintenance dosage regimens to probe the validity of such regimens and to validate the predictions obtained with the PK-PD model. […] The kinetics of body weight loss on some of the tested loading and maintenance dosage regimens (L/MDR) were more benign (i.e. less fluctuating) than those observed on the corresponding fixed dosage regimens (FDR). […] It is concluded that the loading and maintenance dosing concept, by taking into account the very slow elimination rate of NVP-ABJ879, appears to represent an alternative dosing schemeunder which this drug can be dosed weekly.

Series [2] is described as follows: Tolerability (body weight) in KB-8511 tumor-bearing mice. The series is classed as in vivo, BALB/c nude mice. The method, then: The experimental details of the human tumor xenograft model has been described previously. A maximum of 10 female nude mice are kept under sterile conditions (type III cage, in an OHC zone) with free access to food and water. KB-8511 tumors are established by subcutaneous injection of cells (2×10^6 cells in 100 μL PBS). The resulting tumors (at a size of 700 to 1000 mm3) are passaged in vivo at least 3 times prior to chemotherapy experimentation, and tumor-bearing mice are treated with Adriablastin/EÊ at 3 mg/kg (10 mL/kg) every week, in order to keep high levels of pgp170 expression. Tumor fragments of about 25 mg are implanted subcutaneously into the left flank of the animals with a 13 gauge trocar needle under Forene/EÊ (Abbott, Switzerland) anesthesia. Unless otherwise stated, treatments are always initiated when the mean tumor volume in each group reached 100 mm3. […] 7,11-Dihydroxy-8,8,10,12,16-pentamethyl-[1-methyl-2-(2-methylsulfanyl-thiazol-4-yl)-vinyl]-4,17-dioxa-bicyclo[14.1.0]heptadecane-5,9-dione is administered i.v. and tumor volumes and body weights are measured twice per week. Tumor volumes are determined by using callipers for measurement of longest (considered as Length) and shortest (considered as Diameter) dimensions of each tumors, and according to the formula Length×Diameter2×δ/6. Tumor growth and body weights are monitored twice weekly. […]

The subject of series [3] is Human epidermoid carcinoma KB-8511 cells. Put plainly: KB-8511 human tumor xenograft model, loading/maintenance dosage regimens. Format: in vivo, BALB/c nude mice. On the procedure:
7,11-Dihydroxy-8,8,10,12,16-pentamethyl-3-[1-methyl-2-(2-methylsulfanyl-thiazol-4-yl)-vinyl]-4,17-dioxa-bicyclo[14.1.0]heptadecane-5,9-dione is dissolved in PEG300 and immediately diluted with saline (0.9% w/v NaCl) to the desired final concentration to be administered to mice as. The injected volume is 10 ml/kg i.v. Formulations are prepared immediately before use. Adriablastin/EÊ (Pharmacia and Upjohn) is purchased as a 2 mg/mL solution, and diluted with saline (0.9% NaCl) to prepare the 0.3 mg/mL solution used to treat animals. Taxol. (Bristol-Myers Squibb AG) is purchased as a 6 mg/ml solution, and diluted with saline to prepare the 1.5 mg/ml solution used to treat animals.
Human epidermoid carcinoma KB-8511 cells are obtained from Dr R. M. Baker, Roswell, Park Memorial Institute (Buffalo, N.Y., USA). Because of pgp170 overexpression, these cells are multi-drug resistant (Akiyama, et al 1985). KB-8511 cells are cultured as previously described.
The experimental details of the human tumor xenograft model has been described previously. A maximum of 10 female nude mice are kept under sterile conditions (type III cage, in an OHC zone) with free access to food and water. […] 7,11-Dihydroxy-8,8,10,12,16-pentamethyl-[1-methyl-2-(2-methylsulfanyl-thiazol-4-yl)-vinyl]-4,17-dioxa-bicyclo[14.1.0]heptadecane-5,9-dione is administered i.v. and tumor volumes and body weights are measured twice per week. Tumor volumes are determined by using callipers for measurement of longest (considered as Length) and shortest (considered as Diameter) dimensions of each tumors, and according to the formula Length×Diameter2×δ/6. Tumor growth and body weights are monitored twice weekly. When mentioned, antitumor activity is expressed as TIC % (mean increase of tumor volumes of treated animals divided by the mean increase of tumor volumes of control animals multiplied by 100) and/or as Tumor Regression (Reg %), calculated as ((mean tumor volume at the start of treatment minus mean tumor volume)/mean tumor volume at the start of treatment)×100. […]
For orientation: A xenograft is tissue or cells of one species grown in another, often human tumour cells in immunodeficient mice.

In series [4] the test system is colorectal, renal, prostatic, pancreatic, gastric and brain cancers. The note with it: cited from earlier work.
For series [5] the following is noted: cited from earlier work.

As for `CSc1nc(C=C(C)C2CC3OC3(C)CCCC(C)C(O)C(C)C(=O)C(C)(C)C(O)CC(=O)O2)cs1` (centres unmarked) [7,11-Dihydroxy-8,8,10,12,16-pentamethyl-3-[1-methyl-2-(2-methylsulfanyl-thiazol-4-yl)-vinyl]-4,17-dioxa-bicyclo[14.1.0]heptadecane-5,9-dione], in series [1], the elimination rate entry is on record as “very slow”. For the same compound, the “tolerability (stabilization of the body weight loss)” value in series [2] (loading and maintenance 1.5 mg/kg-0.5 mg/kg or 2.1 mg/kg-0.7 mg/kg, weekly i.v.) is recorded as “enhanced tolerability”. Also, the “kinetics of body weight loss” value in series [2] (some loading and maintenance dosage regimens (L/MDR) versus corresponding fixed dosage regimens (FDR)) is “more benign”. Further, the tumor relapse entry in series [3] (1.5/0.5 mg/kg dosing) is “tumor relapse was observed in some of the animals”. In addition, the “antitumor activity where tolerability improved (dose optimization)” value in series [3] (initial tumor volume 100 mm3, tolerability assessed on body weight change) is given as “reduced antitumor activity”. Moreover, the antitumor activity entry in series [3] (loading and maintenance 1.5 mg/kg-0.5 mg/kg or 2.1 mg/kg-0.7 mg/kg, weekly i.v., initial tumor volume 250 mm3) was “strong antitumor activity”.
As to `CC(=O)O[C@H]1C(=O)[C@@]2(C)[C@H]([C@H](OC(=O)c3ccccc3)[C@]3(O)C[C@H](OC(=O)[C@H](O)[C@@H](NC(=O)c4ccccc4)c4ccccc4)C(C)=C1C3(C)C)[C@]1(OC(C)=O)CO[C@@H]1C[C@@H]2O` [TAXOL®, paclitaxel], the “clinical activity as a single agent” value in series [4] is “poorly active clinically”. Further, the solubility in water entry in series [5] was “extremely low”.
